Measurements from patent publication US10933063B2 (priority 2017, dated 2021).
pIC50: −log10 of the molar value.

Molecular target: BTK (Homo sapiens (Human), UniProt Q06187)
Settings: read-out: BTK Inhibition

Sequence of BTK (Q06187 whole entry, looked up, species assumed): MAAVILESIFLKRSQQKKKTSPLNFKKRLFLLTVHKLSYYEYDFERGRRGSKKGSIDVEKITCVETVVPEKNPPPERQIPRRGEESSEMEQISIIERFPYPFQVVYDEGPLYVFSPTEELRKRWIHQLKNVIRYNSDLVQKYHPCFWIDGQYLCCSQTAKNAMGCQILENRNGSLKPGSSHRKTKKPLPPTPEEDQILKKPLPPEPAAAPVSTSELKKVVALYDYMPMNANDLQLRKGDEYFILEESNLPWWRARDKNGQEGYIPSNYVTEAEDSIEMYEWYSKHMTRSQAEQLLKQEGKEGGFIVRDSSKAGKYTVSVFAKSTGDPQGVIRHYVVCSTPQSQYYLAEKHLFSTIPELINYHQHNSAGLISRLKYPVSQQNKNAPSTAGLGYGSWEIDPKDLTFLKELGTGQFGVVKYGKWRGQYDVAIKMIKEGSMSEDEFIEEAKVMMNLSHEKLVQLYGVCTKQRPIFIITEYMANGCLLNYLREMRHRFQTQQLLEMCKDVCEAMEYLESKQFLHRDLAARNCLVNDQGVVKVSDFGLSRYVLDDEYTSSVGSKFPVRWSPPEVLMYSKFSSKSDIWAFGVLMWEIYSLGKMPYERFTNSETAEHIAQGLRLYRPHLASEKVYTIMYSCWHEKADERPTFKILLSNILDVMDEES

Structure (SMILES)	pIC50
CC#CC(=O)N1CC[C@@H](c2nc(-c3ccc(Oc4cccc(OC)c4F)cc3)c3c(C(C)C)nccn23)C1 [Example 112, (R)-1-(3-(1-(4-(2-fluoro-3-methoxyphenoxy)phenyl)-8-isopropylimidazo[1,5-a]pyrazin-3-yl)pyrrolidin-1-yl)but-2-yn-1-one]	< 5.00
CC#CC(=O)N1CC[C@@H](c2nc(-c3ccc(Oc4cccc(OC)c4F)cc3)c3c(C(N)=O)nccn23)C1 [Example 108, (R)-3-(1-(but-2-ynoyl)pyrrolidin-3-yl)-1-(4-(2-fluoro-3-methoxyphenoxy)phenyl)imidazo[1,5-a]pyrazine-8-carboxamide]	< 5.00
C=CC(=O)N1CCC[C@@H](c2nc(-c3ccc(C(=O)Nc4ccccn4)cc3)c3c(C)ncc(C)n23)C1 [Example 184, (R)-4-(3-(1-acryloylpiperidin-3-yl)-5,8-dimethylimidazo [1,5-a]pyrazin-1-yl)-N-(pyridin-2-yl)benzamide]	> 8.00
CC#CC(=O)N1CC[C@@H](c2nc(-c3ccc(Oc4cccc(OC)c4F)cc3)c3cncc(OCCCC)n23)C1 [Example 97, (R)-1-(3-(5-butoxy-1-(4-(2-fluoro-3-methoxyphenoxy)phenyl)imidazo[1,5-a]pyrazin-3-yl)pyrrolidin-1-yl)but-2-yn-1-one]	> 8.00
C=CC(=O)N1CCC[C@H]1c1nc(-c2ccc(Oc3cccc(OC)c3F)cc2)c2cncc(C)n12 [Example 62, (S)-1-(2-(1-(4-(2-fluoro-3-methoxyphenoxy)phenyl)-5-methylimidazo[1,5-a]pyrazin-3-yl)pyrrolidin-1-yl)prop-2-en-1-one]	> 8.00
CC#CC(=O)N1CC[C@@H](c2nc(-c3ccc(Oc4cccc(OC)c4F)cc3)c3cncc(OCCC)n23)C1 [Example 96, (R)-1-(3-(1-(4-(2-fluoro-3-methoxyphenoxy)phenyl)-5-propoxyimidazo[1,5-a]pyrazin-3-yl)pyrrolidin-1-yl)but-2-yn-1-one]	> 8.00
CC#CC(=O)N1CC[C@@H](c2nc(-c3ccc(Oc4cccc(OC)c4F)cc3)c3c(C)nccn23)C1 [Example 92, (R)-1-(3-(1-(4-(2-fluoro-3-methoxyphenoxy)phenyl)-8-methylimidazo[1,5-a]pyrazin-3-yl)pyrrolidin-1-yl)but-2-yn-1-one]	> 8.00
CC#CC(=O)N1CCCC[C@H]1c1nc(-c2ccc(C(=O)Nc3ccccn3)cc2)c2c(C(F)(F)F)nccn12 [Example 200, (S)-4-(3-(1-(but-2-ynoyl)piperidin-2-yl)-8-(trifluoromethyl)imidazo [1,5-a]pyrazin-1-yl)-N-(pyridin-2-yl)benzamide]	< 5.00
CN(C)C(=O)N1CCCC[C@H]1c1nc(-c2ccc(C(=O)Nc3ccccn3)cc2)c2c(C(F)(F)F)nccn12 [Example 215, (S)-N,N-dimethyl-2-(1-(4-(pyridin-2-ylcarbamoyl)phenyl)-8-(trifluoromethyl)imidazo [1,5-a]pyrazin-3-yl) piperidine-1-carboxamide]	< 5.00
C=CC(=O)N1CCC[C@H]1c1nc(-c2ccc(Oc3cccc(Cl)c3F)cc2)c2cnccn12 [Example 22, (S)-1-(2-(1-(4-(3-chloro-2-fluorophenoxy)phenyl)imidazo[1,5-a]pyrazin-3-yl)pyrrolidin-1-yl)prop-2-en-1-one]	> 8.00
C=CC(=O)N1CCC[C@H]1c1nc(-c2ccc(Oc3cccc(OC)c3F)cc2)c2c(C)ncc(C)n12 [Example 64, (S)-1-(2-(1-(4-(2-fluoro-3-methoxyphenoxy)phenyl)-5,8-dimethylimidazo[1,5-a]pyrazin-3-yl)pyrrolidin-1-yl)prop-2-en-1-one]	> 8.00
C=CC(=O)N1CC[C@@H](c2nc(-c3ccc(Oc4cccc(OC)c4F)cc3)c3cncc(OCCN(C)C)n23)C1 [Example 89, (R)-1-(3-(5-(2-(dimethylamino)ethoxy)-1-(4-(2-fluoro-3-methoxyphenoxy)phenyl)imidazo[1,5-a]pyrazin-3-yl)pyrrolidin-1-yl)prop-2-en-1-one]	> 8.00
C=CC(=O)N1CC[C@@H](c2nc(-c3ccc(C(=O)Nc4ccccn4)cc3)c3cncc(OCC)n23)C1 [Example 194, (R)-4-(3-(1-acryloylpyrrolidin-3-yl)-5-ethoxyimidazo [1,5-a]pyrazin-1-yl)-N-(pyridin-2-yl)benzamide]	> 8.00
CC#CC(=O)N1CCCC[C@H]1c1nc(-c2ccc(C(=O)Nc3cc(C(F)(F)F)ccn3)cc2)c2c(C(F)(F)F)nccn12 [Example 202, (S)-4-(3-(1-(but-2-ynoyl)piperidin-2-yl)-8-(trifluoromethyl)imidazo [1,5-a]pyrazin-1-yl)-N-(4-(trifluoromethyl)pyridin-2-yl)benzamide]	< 5.00
CC#CC(=O)N1CCC[C@H]1c1nc(-c2ccc(Oc3cccc(OC)c3F)cc2)c2c(C(N)=O)nccn12 [Example 38, (S)-3-(1-(but-2-ynoyl)pyrrolidin-2-yl)-1-(4-(2-fluoro-3-methoxyphenoxy)phenyl)imidazo[1,5-a]pyrazine-8-carboxamide]	< 5.00
C=CC(=O)N1CC[C@@H](c2nc(-c3ccc(Oc4cccc(OC)c4F)cc3)c3c(CC)nccn23)C1 [Example 106, (R)-1-(3-(8-ethyl-1-(4-(2-fluoro-3-methoxyphenoxy)phenyl)imidazo[1,5-a]pyrazin-3-yl)pyrrolidin-1-yl)prop-2-en-1-one]	> 8.00

Structure (SMILES)	pIC50
CC#CC(=O)N1CC[C@@H](c2nc(-c3ccc(Oc4cccc(OC)c4F)cc3)c3cncc(OC)n23)C1 [Example 86, (R)-1-(3-(1-(4-(2-fluoro-3-methoxyphenoxy)phenyl)-5-methoxyimidazo[1,5-a]pyrazin-3-yl)pyrrolidin-1-yl)but-2-yn-1-one]	> 8.00
CC#CC(=O)N1CCC[C@H]1c1nc(-c2ccc(Oc3ccccc3)nc2)c2cnccn12 [Example 15, (S)-1-(2-(1-(6-phenoxypyridin-3-yl)imidazo[1,5-a]pyrazin-3-yl)pyrrolidin-1-yl)but-2-yn-1-one]	< 5.00
C=CC(=O)N1CCC[C@H]1c1nc(-c2ccc(Oc3cccc(Cl)c3)cc2)c2cnccn12 [Example 28, (S)-1-(2-(1-(4-(3-chlorophenoxy)phenyl)imidazo[1,5-a]pyrazin-3-yl)pyrrolidin-1-yl)prop-2-en-1-one]	> 8.00
C=CC(=O)N1CC[C@@H](c2nc(-c3ccc(Oc4cccc(OC)c4F)cc3)c3cncc(OCCC)n23)C1 [Example 95, (R)-1-(3-(1-(4-(2-fluoro-3-methoxyphenoxy)phenyl)-5-propoxyimidazo[1,5-a]pyrazin-3-yl)pyrrolidin-1-yl)prop-2-en-1-one]	> 8.00
C=CC(=O)N1CCCC[C@H]1c1nc(-c2ccc(C(=O)Nc3ccccn3)cc2)c2c(C3CC3)nccn12 [Example 191, (S)-4-(3-(1-acryloylpiperidin-2-yl)-8-cyclopropylimidazo [1,5-a]pyrazin-1-yl)-N-(pyridin-2-yl)benzamide]	< 5.00
C=CC(=O)N1CC[C@@H](c2nc(-c3ccc(C(=O)Nc4ccccn4)cc3)c3c(C)ncc(OCC)n23)C1 [Example 206, (R)-4-(3-(1-acryloylpyrrolidin-3-yl)-5-ethoxy-8-methylimidazo[1,5-a]pyrazin-1-yl)-N-(pyridin-2-yl)benzamide]	> 8.00
C=CC(=O)N1CC[C@@H](c2nc(-c3ccc(Oc4cccc(OC)c4F)cc3)c3cncc(OCCOC)n23)C1 [Example 104, (R)-1-(3-(1-(4-(2-fluoro-3-methoxyphenoxy)phenyl)-5-(2-methoxyethoxy)imidazo[1,5-a]pyrazin-3-yl)pyrrolidin-1-yl)prop-2-en-1-one]	> 8.00
CC#CC(=O)N1CC[C@@H](c2nc(-c3ccc(Oc4cccc(OC)c4F)cc3)c3c(OC)nccn23)C1 [Example 116, (R)-1-(3-(1-(4-(2-fluoro-3-methoxyphenoxy)phenyl)-8-methoxyimidazo[1,5-a]pyrazin-3-yl)pyrrolidin-1-yl)but-2-yn-1-one]	< 5.00
C=CC(=O)N1CCCC[C@H]1c1nc(-c2ccc(Oc3cccc(OC)c3)cc2)c2c(C)nccn12 [Example 48, (S)-1-(2-(1-(4-(3-methoxyphenoxy)phenyl)-8-methylimidazo[1,5-a]pyrazin-3-yl)piperidin-1-yl)prop-2-en-1-one]	> 8.00
C=CC(=O)N1CC[C@@H](c2nc(-c3ccc(Oc4cccc(OC)c4F)cc3)c3c(C)ncc(C)n23)C1 [Example 74, (R)-1-(3-(1-(4-(2-fluoro-3-methoxyphenoxy)phenyl)-5,8-dimethylimidazo[1,5-a]pyrazin-3-yl)pyrrolidin-1-yl)prop-2-en-1-one]	> 8.00
CC#CC(=O)N1CC[C@@H](c2nc(-c3ccc(Oc4cccc(OC)c4F)cc3)c3cnccn23)C1 [Example 69, (R)-1-(3-(1-(4-(2-fluoro-3-methoxyphenoxy)phenyl)imidazo[1,5-a]pyrazin-3-yl)pyrrolidin-1-yl)but-2-yn-1-one]	> 8.00
CCCCOc1cncc2c(-c3ccc(Oc4cccc(OC)c4F)cc3)nc([C@@H]3CCN(Cc4ccccc4)C3)n12 [Example 102, (R)-3-(1-benzylpyrrolidin-3-yl)-5-butoxy-1-(4-(2-fluoro-3-methoxyphenoxy)phenyl)imidazo[1,5-a]pyrazine]	< 5.00
C=CC(=O)N1CCC[C@H]1c1nc(-c2ccc(Oc3cccc(OC)c3C)cc2)c2cnccn12 [Example 29, (S)-1-(2-(1-(4-(3-methoxy-2-methylphenoxy)phenyl)imidazo[1,5-a]pyrazin-3-yl)pyrrolidin-1-yl)prop-2-en-1-one]	> 8.00
C=CC(=O)N1CCC[C@H]1c1nc(-c2ccc(Oc3cccc(OC)c3F)cc2)c2cncc(OC)n12 [Example 82, (S)-1-(2-(1-(4-(2-fluoro-3-methoxyphenoxy)phenyl)-5-methoxyimidazo[1,5-a]pyrazin-3-yl)pyrrolidin-1-yl)prop-2-en-1-one]	> 8.00
CN(C)C(=O)N1CCCC[C@H]1c1nc(-c2ccc(C(=O)Nc3cc(C(F)(F)F)ccn3)cc2)c2c(C(F)(F)F)nccn12 [Example 216, (S)-N,N-dimethyl-2-(8-(trifluoromethyl)-1-(4-((4-(trifluoromethyl)pyridin-2-yl)carbamoyl)phenyl)imidazo[1,5-a]pyrazin-3-yl)piperidine-1-carboxamide]	< 5.00
